Each molecule was assayed against T1, mu opioid receptor (CHO-hMOR cell membranes) (Homo sapiens, UniProt P35372) (assay: Mu Opioid Receptor Functional Assay: [35S]GTPγS Binding in CHO-hMOR Cell Membranes, Versions 1 and 2). Conditions: version 2, % inhibition of agonist-stimulated GTPγS binding.
T1 construct: purchased Receptor Biology, Inc. (Baltimore, Md.); host or cells: CHO cells (recombinant expression)
T1 sequence (P35372 whole entry): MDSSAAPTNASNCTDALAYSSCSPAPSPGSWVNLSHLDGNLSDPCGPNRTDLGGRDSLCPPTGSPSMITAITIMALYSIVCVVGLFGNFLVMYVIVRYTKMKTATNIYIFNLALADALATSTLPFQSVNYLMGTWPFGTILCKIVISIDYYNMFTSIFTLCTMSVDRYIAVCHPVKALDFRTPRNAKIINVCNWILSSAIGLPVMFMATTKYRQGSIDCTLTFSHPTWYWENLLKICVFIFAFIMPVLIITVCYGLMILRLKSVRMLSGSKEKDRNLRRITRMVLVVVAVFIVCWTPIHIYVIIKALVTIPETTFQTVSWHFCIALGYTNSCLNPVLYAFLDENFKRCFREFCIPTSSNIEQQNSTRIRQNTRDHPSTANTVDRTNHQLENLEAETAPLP
Assay type: biochemical
Description: CHO-hMOR cell membranes were purchased from Receptor Biology, Inc. (Baltimore, Md.). About 10 mg/ml of membrane protein was suspended in 10 mM TRIS-HCl pH 7.2, 2 mM EDTA, 10% sucrose, and the suspension kept on ice. One ml of membranes was added to 15 ml cold binding assay buffer containing 50 mM HEPES, pH 7.6, 5 mM MgCl2, 100 mM NaCl, 1 mM DTT and 1 mM EDTA. The membrane suspension was homogenized with a Polytron and centrifuged at 3,000 rpm for 10 min. The supernatant was then centrifuged at 18,000 rpm for 20 min. The pellet was resuspended in 10 ml assay buffer with a Polytron.
The membranes were preincubated with wheat germ agglutinin coated SPA beads (Amersham) at 25° C. for 45 min in the assay buffer. The SPA bead (5 mg/ml) coupled membranes (10 μg/ml) were then incubated with 0.5 nM [^35S]GTPγS in the assay buffer. […] A range of concentrations of receptor agonists was used to stimulate [^35S]GTPγS binding. Both basal and non-specific binding was tested in the absence of agonist; non-specific binding determination included 10 μM unlabeled GTPγS.
Compounds were tested for function as antagonists by evaluating their potential to inhibit agonist-stimulated GTPγS binding. Radioactivity was quantified on a Packard TopCount. The following parameters were calculated:
[formula] % Inhibition=(% stimulation by 1 μM SNC80−% stimulation by 1 μM SNC80 in presence of test compound)×100/(% Stimulation by 1 μM SNC80−100)
EC50 values were calculated using GraphPad Prism.
For `Cc1cc(C(N)=O)cc(C)c1C[C@H](N)C(=O)N(Cc1ccnc(C(=O)O)c1)[C@@H](C)c1nc(-c2ccccc2)c[nH]1` [Cpd 316], the “MOR GTP binding assay_v2 (% I)” value was 76%.
In the case of `COC(=O)c1ccnc(CN(C(=O)[C@@H](N)Cc2c(C)cc(C(N)=O)cc2C)[C@@H](C)c2nc(-c3ccccc3)c[nH]2)c1` [Cpd 312], the “MOR GTP binding assay_v2 (% I)” value is reported as 35.00%.
`COC(=O)N[C@@H](Cc1c(C)cc(C(N)=O)cc1C)C(=O)N(Cc1ccc(OC)c(C(=O)OC)c1)[C@@H](C)c1nc(-c2ccccc2)c[nH]1` [Cpd 310] was tested, and the “MOR GTP binding assay_v2 (% I)” value was 51.00%.
For `COc1ccc(CN(C(=O)[C@@H](N)Cc2c(C)cc(C(N)=O)cc2C)[C@@H](C)c2nc(-c3ccccc3)c[nH]2)cc1-c1nnn(C(C)(C)C)n1` [Cpd 309], the “MOR GTP binding assay_v2 (% I)” value was 47.00%.

Same assay, conditions: version 2, read-out: MOR GTP binding assay v2 EC50
`Cc1cc(C(N)=O)cc(C)c1C[C@H](N)C(=O)N(Cc1ccnc(C(=O)O)c1)[C@@H](C)c1nc(-c2ccccc2)c[nH]1` [Cpd 316] gave an EC50 of 24.1 nM.
Molecule `COC(=O)c1ccnc(CN(C(=O)[C@@H](N)Cc2c(C)cc(C(N)=O)cc2C)[C@@H](C)c2nc(-c3ccccc3)c[nH]2)c1` [Cpd 312] has an EC50 of 58.7 nM.
`COC(=O)N[C@@H](Cc1c(C)cc(C(N)=O)cc1C)C(=O)N(Cc1ccc(OC)c(C(=O)OC)c1)[C@@H](C)c1nc(-c2ccccc2)c[nH]1` [Cpd 310] was tested, and the EC50 was 3920 nM.
With `COc1ccc(CN(C(=O)[C@@H](N)Cc2c(C)cc(C(N)=O)cc2C)[C@@H](C)c2nc(-c3ccccc3)c[nH]2)cc1-c1nnn(C(C)(C)C)n1` [Cpd 309] the EC50 was 23 nM.

What follows are molecules tested against T2, human mu opioid receptor (Homo sapiens, UniProt P35372) (assay: Human Mu Opioid Receptor Binding Assay (CHO membranes, 3H-Damgo)). Conditions: read-out: hKi μ.
T2 construct: purchased Perkin Elmer RBHOMM400UA; host or cells: Chinese Hamster Ovary cells (recombinant expression)
T2 sequence (P35372 whole entry): as above
Description: Membranes from Chinese Hamster Ovary cells expressing the human […] opioid receptor (Perkin Elmer #RBHOMM400UA) are homogenized in assay buffer (50 mM Tris, pH 7.5 with 5 mM MgCl2) using a glass tissue grinder, Teflon pestle and a Steadfast Stirrer (Fisher Scientific). The concentration of membranes is adjusted to 300 μg/mL in assay buffer and 100 μL is dispensed into each well of the assay plate, a 96 well round bottom polypropylene plate. Compounds to be tested are solubilized in DMSO (Pierce), 10 mM, then diluted in assay buffer to 6× the desired final concentration. The ligand, ^3H-Damgo (Perkin Elmer #NET-902) is also diluted in assay buffer to 3.6 nM. In a second 96 well round bottom polypropylene plate, known as the premix plate, 60 μL of the 6× compound is combined with 60 μL of 3.6 nM ^3H-Damgo. From this premix plate 50 μL is transferred to the assay plate containing the membranes, in duplicate. The assay plate is incubated for 2 h at room temperature. A GF/C 96 well filter plate (Perkin Elmer #6005174) is pretreated with 0.3% polyethylenimine for 30 min. The contents of the assay plate are filtered through the filter plate using a Packard Filtermate Harvester, and washed 3 times with 0.9% saline that is 4° C. The filter plate is dried, the underside sealed, and 30 μL Microscint20 (Packard #6013621) added to each well. A Topcount-NXT Microplate Scintillation Counter (Packard) is used to measure emitted energies in the range of 2.9 to 35 KeV. […] Nonspecific binding is determined in the presence of 1 μM unlabelled Damgo (Tocris #1171).
`COC(=O)c1cc(CN(C(=O)[C@@H](N)Cc2c(C)cc(O)cc2C)[C@@H](C)c2nc(-c3ccccc3)c[nH]2)ccc1OC` [Cpd 268] gave a Ki of 5.79 nM.
`Cc1cc(C(N)=O)cc(C)c1C[C@H](N)C(=O)N(Cc1ccccc1)[C@@H](C)c1nc(-c2ccc(C(F)(F)F)cc2)c[nH]1` [Cpd 42] showed a Ki of 5.8 nM.
For `COc1ccc(CN(C(=O)[C@@H](N)Cc2c(C)cc(C(N)=O)cc2C)[C@@H](C)c2nc(-c3cccc(Br)c3)c[nH]2)cc1OC` [Cpd 19], the Ki was 18.2 nM.
`C[C@@H](c1nc(Cc2ccccc2)c[nH]1)N(C)C(=O)[C@@H](N)Cc1ccc(O)cc1` [Cpd 204] showed a Ki of 7.7 nM.
Molecule `Cc1cc(C(N)=O)cc(C)c1C[C@H](N)C(=O)N(Cc1ccccc1Br)[C@@H](C)c1nc(-c2ccccc2)c[nH]1` [Cpd 3] has a Ki of 13 nM.
`Cc1cc(O)cc(C)c1C[C@H](N)C(=O)N(Cc1nc(-c2ccc(CO)cc2)c(C)[nH]1)C(C)C` [Cpd 39] gave a Ki of 0.9 nM.
`COC(=O)c1cc(CN(C(=O)[C@@H](N)Cc2ccccc2)[C@@H](C)c2nc(-c3ccccc3)c[nH]2)ccc1OC` [Cpd 266] gave a Ki of 69 nM.
`COc1ccc(CN(C(=O)[C@@H](N)Cc2c(C)cc(O)cc2C)[C@@H](COCc2ccccc2)c2nc(-c3ccccc3)c[nH]2)cc1OC` [Cpd 21] was tested, and the Ki was 37.6 nM.
In the case of `COC(=O)c1cccc(CN(C(=O)[C@@H](N)Cc2c(C)cc(C(N)=O)cc2C)[C@@H](C)c2nc(-c3cccc4ccccc34)c[nH]2)c1` [Cpd 10], the Ki is reported as 15.5 nM.
For `Cc1cc(C(N)=O)cc(C)c1C[C@H](N)C(=O)N(Cc1ccccc1)[C@H](C)c1nc(-c2ccccc2)c[nH]1` [Cpd 113], the Ki was 16 nM.
`Cc1cc(O)cc(C)c1C[C@H](N)C(=O)N(Cc1nc(-c2cc(N)cc(C(=O)O)c2)c(C)[nH]1)C(C)C` [Cpd 47] was tested, and the Ki was 22 nM.
`COc1cc(Br)c(CN(C(=O)[C@@H](N)Cc2c(C)cc(C(N)=O)cc2C)[C@@H](C)c2nc(-c3ccccc3)c[nH]2)cc1OC` [Cpd 229] gave a Ki of 12 nM.
With `Cc1cc(C(N)=O)cc(C)c1C[C@H](N)C(=O)N(Cc1ccccc1C#N)[C@@H](C)c1nc(-c2ccccc2)c[nH]1` [Cpd 2] the Ki was 2.9 nM.
Work on `COc1ccc(CN(Cc2nc(-c3ccccc3)c[nH]2)C(=O)[C@@H](N)Cc2c(C)cc(O)cc2C)cc1OC` [Cpd 35] yielded a Ki of 2.8 nM.
In the case of `Cc1cc(O)cc(C)c1C[C@H](N)C(=O)N(Cc1nc(-c2ccc(C(=O)O)c(F)c2)c(C)[nH]1)C(C)C` [Cpd 37], the Ki is reported as 183 nM.
`Cc1cc(O)cc(C)c1C[C@H](N)C(=O)N(Cc1nc(-c2ccc(C#N)cc2)c(C)[nH]1)C(C)C` [Cpd 41] showed a Ki of 1.6 nM.
`Cc1cc(O)cc(C)c1C[C@H](N)C(=O)N(Cc1nc(-c2ccc(OC(F)(F)F)cc2)c(C)[nH]1)C(C)C` [Cpd 44] gave a Ki of 8.7 nM.
`Cc1cc(O)cc(C)c1C[C@H](N)C(=O)N(Cc1ccc(OCc2ccccc2)c(OCc2ccccc2)c1)[C@@H](C)c1nc(-c2ccccc2)c[nH]1` [Cpd 30] was tested, and the Ki was 34 nM.
`Cc1cc(O)cc(C)c1C[C@H](N)C(=O)N(Cc1nc(-c2cccc(OC(F)(F)F)c2)c(C)[nH]1)C(C)C` [Cpd 43] gave a Ki of 6.9 nM.
`Cc1cc(O)cc(C)c1C[C@H](N)C(=O)N(CC1CCNCC1)[C@@H](C)c1nc(-c2ccccc2)c[nH]1` [Cpd 16] was tested, and the Ki was 16 nM.
Work on `Cc1[nH]c(CN(C(=O)[C@@H](N)Cc2ccc(O)cc2)C(C)C)nc1-c1cncnc1` [Cpd 132] yielded a Ki of 166 nM.
`COC(=O)c1cc(CN(Cc2nc(-c3ccccc3)c[nH]2)C(=O)[C@@H](N)Cc2c(C)cc(C(N)=O)cc2C)ccc1OC` [Cpd 7] was tested, and the Ki was 6.8 nM.
In the case of `Cc1cc(O)cc(C)c1C[C@H](N)C(=O)N(Cc1nc(-c2cccc(NS(C)(=O)=O)c2)c(C)[nH]1)C(C)C` [Cpd 45], the Ki is reported as 1.2 nM.
Work on `Cc1cc(O)cc(C)c1C[C@H](N)C(=O)N(Cc1nc(-c2ccccc2)c[nH]1)C(c1ccccc1)c1ccccc1` [Cpd 40] yielded a Ki of 152 nM.
Work on `COc1ccc(CN(C(=O)[C@@H](N)Cc2c(C)cc(C(N)=O)cc2C)[C@@H](C)c2nc(-c3cccc(C(N)=O)c3)c[nH]2)cc1OC` [Cpd 23] yielded a Ki of 34.3 nM.
Molecule `COc1ccc(CN(C(=O)[C@@H](N)Cc2c(C)cc(C(N)=O)cc2C)[C@@H](C)c2nc(-c3ccccc3Br)c[nH]2)cc1OC` [Cpd 26] has a Ki of 17 nM.
In the case of `COc1cccc(CN(C(=O)[C@@H](N)Cc2c(C)cc(O)cc2C)[C@@H](C)c2nc(-c3ccccc3)c[nH]2)c1` [Cpd 33], the Ki is reported as 6.9 nM.
Molecule `COc1ccc(CN(C(=O)[C@@H](N)Cc2c(C)cc(C(N)=O)cc2C)[C@@H](C)c2nc(-c3cccc(C#N)c3)c[nH]2)cc1OC` [Cpd 24] has a Ki of 9.3 nM.
Work on `COc1ccc(CN(C(=O)[C@@H](N)Cc2c(C)cc(O)cc2C)[C@@H](C)c2nc(-c3ccccc3)c[nH]2)cc1` [Cpd 32] yielded a Ki of 6.8 nM.
`COc1ccc(CN(C(=O)[C@@H](N)Cc2c(C)cc(O)cc2C)[C@H](COCc2ccccc2)c2nc(-c3ccccc3)c[nH]2)cc1OC` [Cpd 22] was tested, and the Ki was ~200 nM.
`CC(C)[C@@H](c1nc(-c2ccccc2)c[nH]1)N(C(=O)[C@@H](N)Cc1cccc(C(N)=O)c1)C(C)C` [Cpd 137] was tested, and the Ki was 445 nM.
`Cc1cc(O)cc(C)c1C[C@H](N)C(=O)N(CC(=O)O)Cc1nc(-c2ccccc2)c[nH]1` [Cpd 129] showed a Ki of 25.3 nM.
`Cc1cc(C(N)=O)cc(C)c1C[C@H](N)C(=O)N(C1CCCCC1)[C@H](C)c1nc(-c2ccccc2)c[nH]1` [Cpd 128] gave a Ki of 58 nM.
In the case of `Cc1cc(C(N)=O)cc(C)c1C[C@H](N)C(=O)N(Cc1ccc(C(=O)O)cc1)[C@@H](C)c1nc(-c2cccc3ccccc23)c[nH]1` [Cpd 13], the Ki is reported as 4.8 nM.
For `Cc1cc(O)cc(C)c1C[C@H](N)C(=O)N(Cc1ccc(O)c(O)c1)[C@@H](C)c1nc(-c2ccccc2)c[nH]1` [Cpd 15], the Ki was 285 nM.
Work on `Cc1cc(O)cc(C)c1C[C@H](N)C(=O)N(Cc1nc(-c2ccc(CCC(=O)O)cc2)c(C)[nH]1)C(C)C` [Cpd 46] yielded a Ki of 35 nM.
For `CN[C@@H](Cc1ccc(OCc2ccccc2)cc1)C(=O)N(Cc1ccc(OC)c(C(=O)O)c1)[C@@H](C)c1nc(-c2ccccc2)c[nH]1` [Cpd 274], the Ki was > 1000 nM.
For `COc1ccc(CN(C(=O)[C@@H](N)Cc2c(C)cc(O)cc2C)[C@@H](C)c2nc(-c3ccccc3)c[nH]2)c(OC)c1` [Cpd 34], the Ki was 19 nM.
For `Cc1cc(C(=O)O)cc(C)c1C[C@H](N)C(=O)N(Cc1ccc(C(=O)O)cc1)[C@@H](C)c1nc(-c2ccccc2)c[nH]1` [Cpd 49], the Ki was 48 nM.
For `COc1ccc(CN(C(=O)[C@@H](N)Cc2c(C)cc(C(N)=O)cc2C)[C@@H](C)c2nc(-c3ccccc3C#N)c[nH]2)cc1OC` [Cpd 27], the Ki was 30 nM.
With `Cc1cc(O)cc(C)c1C[C@H](N)C(=O)N(Cc1nc(C=Cc2ccccc2)c(C)[nH]1)C(C)C` [Cpd 38] the Ki was 19 nM.
Work on `COc1ccc(CN(C(=O)[C@@H](N)Cc2c(C)cc(C(N)=O)cc2C)[C@@H](C)c2nc(-c3ccccc3C(N)=O)c[nH]2)cc1OC` [Cpd 28] yielded a Ki of 44 nM.
